Measurements taken from patent US11945779B2, “Inhibitors of cancer metastasis through inhibiting migration and invasion of cancer cells” (VSpharmtech, priority 2018, dated 2024).

Legend:
[1] = test system: pancreatic cancer cell line AsPc-1; assay: Trans-well cancer cell migration inhibition, AsPc-1; type: cell-based; settings: Homo sapiens, ASPC1; Pancreatic cancer cell line AsPc-1; read-out: Concentration inhibiting migration of cancer cells by 50% (IC50 value)
Protocol: (§1) In order to analyze cancer cell migration inhibitory activity of CG-608, CG-609 or CG-618 prepared in Examples 1, 2, or 9, cell migration inhibitory activity was measured using a trans-well by targeting a colon cancer cell line DLD-1 (ATCC-CCL-221), pancreatic cancer cell lines AsPc-1 (ATCC-CCL-1682). CFPAC-1 (ATCC-CCL-1918). Panc-1 (ATCC-CCL-1469), and Miapaca-2 (ATCC-CCL-1420), a skin cancer cell line A375-P (ATCC-CCL-3224), lung cancer cell lines HCC-827 (ATCC-CCL-2868), A549 (ATCC-CCL-185), and NCI-H460 (ATCC-CCL-177), a prostate cancer cell line DU145 (ATCC-HTB-81), a stomach cancer cell line NuGC-3 (JCRB0822), and an ovarian cancer cell line SKOV-3 (ATCC-HTB-77).
(§2) First, the number of DLD-1 cells was measured using a hemocytometer in an RPMI medium without FBS. Thereafter, the trans-well was placed on a 24-well plate and 8×10^4 […] of cells were added. In an empty space with the trans-well on the well plate, […] of an RPM medium having 10% FBS containing CG-608, CG-609, or CG-618 was added and cultured in a CO2 incubator at 37° C. for 16 hours. After culture, […] of crystal violet (5 mg/mL of 20% […] was added to each well of the 24-well plate and the trans-well was dyed at room temperature for 30 minutes. The dyed trans-well was washed with PBS and non-migrated cells were wiped off with cotton swabs. The prepared sample was photographed with an inverted microscope mounted with a digital camera (TE 300, Nikon. Japan) and then the number of migrated cells was counted. The degree of inhibiting cell migration was calculated by Equation 1 for a group treated with the sample compared to a control group (DMSO).
(§3) In Equation 1, ‘the number of migrated cells treated with sample’ refers to the number of migrated cells measured by treating CG-608 or CG-618 of Example 1, and ‘the number of migrated cells of a control sample’ refers to the number of migrated cells measured by treating only 1% dimethyl sulfoxide (DMSO) instead of the compound.

[2] = test system: colon cancer cell line DLD-1; assay: Trans-well cancer cell migration inhibition, DLD-1; type: cell-based, human; settings: Homo sapiens; Colon cancer cell DLD-1, trans-well, 16 hours; read-out: Concentration inhibiting migration of cancer cells by 50% (IC50 value)
Protocol: as §1, §2, §3

[3] = test system: prostate cancer cell line DU145; assay: Trans-well cancer cell migration inhibition, DU145; type: cell-based; settings: Homo sapiens, DU-145; Prostate cancer cell DU145; read-out: Concentration inhibiting migration of cancer cells by 50% (IC50 value)
Protocol: as §1, §2, §3

[4] = Acute toxicity test for oral administration to rats; settings: rat, in vivo, 1000 mg/kg; SD rats, single oral dose; read-out: Minimum dose (LD50) of oral administration
Protocol: Six-week-old specific pathogen free (SPF) SD-based rats were divided by two per group and then CG-608, CG-609, or CG-618 prepared in Example 1, 2, or 9 was dissolved in distilled water for injection and orally administered to rats once in a dose of 1000 mg/kg.

[5] = test system: stomach cancer cell line NuGC-3; assay: Trans-well cancer cell migration inhibition, NuGC-3; type: cell-based; settings: Homo sapiens; Gastric cancer cell NuGC-3; read-out: Concentration inhibiting migration of cancer cells by 50% (IC50 value)
Protocol: as §1, §2, §3

[6] = test system: lung cancer cell line HCC-827; assay: Trans-well cancer cell migration inhibition, HCC-827; type: cell-based; settings: Homo sapiens, HCC827; Lung cancer cell HCC-827; read-out: Concentration inhibiting migration of cancer cells by 50% (IC50 value)
Protocol: as §1, §2, §3

[7] = test system: skin cancer cell line A375-P; assay: Trans-well cancer cell migration inhibition, A375-P; type: cell-based; settings: Homo sapiens, A375P; Skin cancer cell A375-P; read-out: Concentration inhibiting migration of cancer cells by 50% (IC50 value)
Protocol: as §1, §2, §3

[8] = test system: colon cancer cells DLD-1; assay: Cancer cell invasion inhibition (Matrigel trans-well), DLD-1; type: cell-based; settings: Homo sapiens, DLD-1; 5 μM
Protocol: In order to analyze cancer cell invasion inhibitory activity of CG-609 or CG-618 prepared in Example 1 or 9, cell invasion inhibitory activity using a trans-well was measured by targeting colon cancer cell line DLD-1 cells or pancreatic cancer cell line AsPc-1 cells.
Matrigel was diluted by 1/5 using an RPMI medium without FBS and then […] was put into each trans-well. The cells were coated in a […] for 2 hours. The number of DLD-1 cells was measured using a hemocytometer in an RPMI medium without FBS. Thereafter, the coated trans-well was placed on a 24-well plate and 8×10^4 […] of cells were added. In an empty space of the trans-well on the well plate, […] of an RPMI medium having 10% FBS containing (S)-(−)-benproperine was added and cultured in a CO2 incubator at 37° C. for 16 hours. After culture, […] of crystal violet (5 mg/mL of 20% MeOH) was added to each well of the 24-well plate and the trans-well was dyed at room temperature for 30 minutes. The dyed trans-well was washed with PBS and non-migrated cells were wiped off with cotton swabs. The prepared sample was photographed with an inverted microscope mounted with a digital camera (TE 300, Nikon, Japan), and then the number of migrated cells was counted. The degree of inhibiting cell migration was calculated for a group treated with the sample compared to a control group (DMSO).

| SMILES | IC50 [1] [nM] | IC50 [2] [nM] | IC50 [3] [nM] | LD50 [4] [mg/kg] | IC50 [5] [nM] | IC50 [6] [nM] | IC50 [7] [nM] | inhibition at 5 µM [8] [%] |
| --- | --- | --- | --- | --- | --- | --- | --- | --- |
| CC1CCCCN1[C@@H](C)COc1ccccc1Cc1ccccc1 (stereo partly drawn) [CG-608, 1-((S)-1-(2-benzylphenoxy)propan-2-yl)-2-methylpiperidine] | 250 | 200 | 5000 | ≥ 1000 | 2000 | 1500 | 1500 |  |
| CC(COc1ccccc1Cc1ccccc1)N1CCCCC1 (centres unmarked) [benproperine, reference compound] | 3000 | 2000 | 20000 |  | < 20000 | 20000 | 7000 | 50 |
